Laboratory results: article PMC12670405, “Second-Generation AURKA-Targeting PROTACs: Structural Optimization toward in Vivo Degradation in Neuroblastoma” (Journal of Medicinal Chemistry, 2025)

Key:
Assay in all cases: KINOMEscan scanMAX
Assay type in all cases: binding
Conditions in all cases: read-out: Percent Control
p38-beta = biological target: T1, p38-beta (Homo sapiens, UniProt Q15759)
T1 construct: purchased Eurofins Discovery (DiscoverX KINOMEscan scanMAX)
Protocol: (§1) The kinome-wide binding assay was performed by Eurofins Discovery using the scanMAX screening platform. More information can be found on the Eurofins Discovery Web site.

YANK2 = biological target: T2, YANK2 (Homo sapiens, UniProt Q9NY57)
T2 construct: purchased Eurofins Discovery (DiscoverX KINOMEscan scanMAX)
Protocol: as §1

MARK3 = biological target: T3, MARK3 (Homo sapiens, UniProt P27448)
T3 construct: purchased Eurofins Discovery (DiscoverX KINOMEscan scanMAX)
Protocol: as §1

S6K1 = biological target: T4, S6K1 (Homo sapiens, UniProt P23443)
T4 construct: purchased Eurofins Discovery (DiscoverX KINOMEscan scanMAX)
Protocol: as §1

YANK3 = biological target: T5, YANK3 (Homo sapiens, UniProt Q86UX6)
T5 construct: purchased Eurofins Discovery (DiscoverX KINOMEscan scanMAX)
Protocol: as §1

PIK3CA(H1047Y) = biological target: T6, PIK3CA(H1047Y) (Homo sapiens, UniProt P42336, H1047Y)
T6 construct: purchased Eurofins Discovery (DiscoverX KINOMEscan scanMAX)
T6 sequence (P42336 whole entry H1047Y): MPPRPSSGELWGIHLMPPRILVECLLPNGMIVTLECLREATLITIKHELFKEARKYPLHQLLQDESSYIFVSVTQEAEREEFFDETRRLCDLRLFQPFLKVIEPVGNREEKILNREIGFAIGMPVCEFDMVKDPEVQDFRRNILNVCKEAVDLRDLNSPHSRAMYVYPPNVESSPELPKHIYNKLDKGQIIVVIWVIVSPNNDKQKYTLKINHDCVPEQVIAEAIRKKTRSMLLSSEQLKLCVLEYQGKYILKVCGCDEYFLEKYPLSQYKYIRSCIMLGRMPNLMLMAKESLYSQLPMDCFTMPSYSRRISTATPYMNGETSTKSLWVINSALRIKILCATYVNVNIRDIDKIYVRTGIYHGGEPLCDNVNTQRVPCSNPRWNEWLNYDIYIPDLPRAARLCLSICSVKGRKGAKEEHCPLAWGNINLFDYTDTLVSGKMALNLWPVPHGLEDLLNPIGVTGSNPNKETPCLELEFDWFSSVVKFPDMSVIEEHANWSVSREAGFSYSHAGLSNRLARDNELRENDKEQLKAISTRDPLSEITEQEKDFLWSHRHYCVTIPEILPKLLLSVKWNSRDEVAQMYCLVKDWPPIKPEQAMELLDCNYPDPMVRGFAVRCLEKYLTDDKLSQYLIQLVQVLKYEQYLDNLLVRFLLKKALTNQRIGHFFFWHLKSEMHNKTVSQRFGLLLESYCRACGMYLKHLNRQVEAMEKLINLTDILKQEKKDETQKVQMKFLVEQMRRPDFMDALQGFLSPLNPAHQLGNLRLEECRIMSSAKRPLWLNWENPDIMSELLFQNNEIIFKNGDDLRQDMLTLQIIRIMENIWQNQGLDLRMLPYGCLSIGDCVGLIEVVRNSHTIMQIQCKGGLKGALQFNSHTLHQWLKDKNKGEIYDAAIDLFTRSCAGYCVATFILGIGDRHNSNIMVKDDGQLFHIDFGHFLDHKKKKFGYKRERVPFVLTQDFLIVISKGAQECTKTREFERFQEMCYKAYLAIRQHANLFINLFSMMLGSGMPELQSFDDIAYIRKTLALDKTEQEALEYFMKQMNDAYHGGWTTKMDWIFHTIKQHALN
Protocol: as §1

ERK4 = biological target: T7, ERK4 (Homo sapiens, UniProt P31152)
T7 construct: purchased Eurofins Discovery (DiscoverX KINOMEscan scanMAX)
T7 sequence (P31152 whole entry): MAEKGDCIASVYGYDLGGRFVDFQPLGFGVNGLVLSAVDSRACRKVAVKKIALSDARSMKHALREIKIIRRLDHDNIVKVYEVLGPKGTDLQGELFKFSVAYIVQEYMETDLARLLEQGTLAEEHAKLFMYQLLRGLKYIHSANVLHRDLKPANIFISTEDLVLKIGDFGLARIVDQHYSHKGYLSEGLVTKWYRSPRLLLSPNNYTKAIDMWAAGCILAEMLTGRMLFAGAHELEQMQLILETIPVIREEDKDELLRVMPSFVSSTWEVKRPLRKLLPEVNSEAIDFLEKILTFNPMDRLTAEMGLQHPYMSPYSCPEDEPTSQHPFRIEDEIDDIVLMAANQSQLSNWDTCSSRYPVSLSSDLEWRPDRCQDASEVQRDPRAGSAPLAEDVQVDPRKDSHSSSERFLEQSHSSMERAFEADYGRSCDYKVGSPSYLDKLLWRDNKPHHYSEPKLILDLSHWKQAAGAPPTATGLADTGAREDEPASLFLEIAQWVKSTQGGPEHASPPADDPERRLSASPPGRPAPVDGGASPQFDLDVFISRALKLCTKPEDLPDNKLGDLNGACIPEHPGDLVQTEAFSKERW
Protocol: as §1

p38-gamma = biological target: T8, p38-gamma (Homo sapiens, UniProt P53778)
T8 construct: purchased Eurofins Discovery (DiscoverX KINOMEscan scanMAX)
T8 sequence (P53778 whole entry): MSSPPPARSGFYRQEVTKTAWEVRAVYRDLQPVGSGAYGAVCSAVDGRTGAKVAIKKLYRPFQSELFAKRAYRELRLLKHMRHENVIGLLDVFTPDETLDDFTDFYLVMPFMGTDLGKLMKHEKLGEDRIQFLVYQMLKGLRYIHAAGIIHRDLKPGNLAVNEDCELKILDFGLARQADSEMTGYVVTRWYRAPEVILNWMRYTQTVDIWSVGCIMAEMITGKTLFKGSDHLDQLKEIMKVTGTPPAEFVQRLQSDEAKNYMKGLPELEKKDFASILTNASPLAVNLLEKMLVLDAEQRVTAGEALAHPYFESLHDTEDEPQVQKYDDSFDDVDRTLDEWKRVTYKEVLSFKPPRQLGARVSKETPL
Protocol: as §1

PIK3CA(I800L) = biological target: T9, PIK3CA(I800L) (Homo sapiens, UniProt P42336, I800L)
T9 construct: purchased Eurofins Discovery (DiscoverX KINOMEscan scanMAX)
T9 sequence (P42336 whole entry I800L): as the sequence (P42336 whole entry H1047Y) above, with I800L, Y1047H counted along it
Protocol: as §1

DYRK1B = biological target: T10, DYRK1B (Homo sapiens, UniProt Q9Y463)
T10 construct: purchased Eurofins Discovery (DiscoverX KINOMEscan scanMAX)
Protocol: as §1

IKK-epsilon = biological target: T11, IKK-epsilon (Homo sapiens, UniProt Q14164)
T11 construct: purchased Eurofins Discovery (DiscoverX KINOMEscan scanMAX)
Protocol: as §1

PIK3CA(M1043I) = biological target: T12, PIK3CA(M1043I) (Homo sapiens, UniProt P42336, M1043I)
T12 construct: purchased Eurofins Discovery (DiscoverX KINOMEscan scanMAX)
T12 sequence (P42336 whole entry M1043I): as the sequence (P42336 whole entry H1047Y) above, with M1043I, Y1047H counted along it
Protocol: as §1

STK33 = biological target: T13, STK33 (Homo sapiens, UniProt Q9BYT3)
T13 construct: purchased Eurofins Discovery (DiscoverX KINOMEscan scanMAX)
T13 sequence (Q9BYT3 whole entry): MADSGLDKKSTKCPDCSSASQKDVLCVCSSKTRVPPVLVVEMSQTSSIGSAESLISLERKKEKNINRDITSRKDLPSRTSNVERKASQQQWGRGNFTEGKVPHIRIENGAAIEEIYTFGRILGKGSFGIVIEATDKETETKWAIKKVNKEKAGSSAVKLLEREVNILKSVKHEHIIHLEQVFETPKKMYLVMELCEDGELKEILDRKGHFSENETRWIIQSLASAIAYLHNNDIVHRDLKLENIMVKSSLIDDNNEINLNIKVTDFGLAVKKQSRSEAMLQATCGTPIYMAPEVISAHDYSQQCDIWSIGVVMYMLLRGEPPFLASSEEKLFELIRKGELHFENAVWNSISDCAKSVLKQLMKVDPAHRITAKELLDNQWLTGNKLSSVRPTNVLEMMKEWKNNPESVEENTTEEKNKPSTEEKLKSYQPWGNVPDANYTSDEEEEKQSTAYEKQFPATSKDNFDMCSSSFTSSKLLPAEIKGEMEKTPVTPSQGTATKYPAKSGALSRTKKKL
Protocol: as §1

HASPIN = biological target: T14, HASPIN (Homo sapiens, UniProt Q8TF76)
T14 construct: purchased Eurofins Discovery (DiscoverX KINOMEscan scanMAX)
Protocol: as §1

LRRK2(G2019S) = biological target: T15, LRRK2(G2019S) (Homo sapiens, UniProt Q5S007, G2019S)
T15 construct: purchased Eurofins Discovery (DiscoverX KINOMEscan scanMAX)
Protocol: as §1

SGK2 = biological target: T16, SGK2 (Homo sapiens, UniProt Q9HBY8)
T16 construct: purchased Eurofins Discovery (DiscoverX KINOMEscan scanMAX)
T16 sequence (Q9HBY8 whole entry): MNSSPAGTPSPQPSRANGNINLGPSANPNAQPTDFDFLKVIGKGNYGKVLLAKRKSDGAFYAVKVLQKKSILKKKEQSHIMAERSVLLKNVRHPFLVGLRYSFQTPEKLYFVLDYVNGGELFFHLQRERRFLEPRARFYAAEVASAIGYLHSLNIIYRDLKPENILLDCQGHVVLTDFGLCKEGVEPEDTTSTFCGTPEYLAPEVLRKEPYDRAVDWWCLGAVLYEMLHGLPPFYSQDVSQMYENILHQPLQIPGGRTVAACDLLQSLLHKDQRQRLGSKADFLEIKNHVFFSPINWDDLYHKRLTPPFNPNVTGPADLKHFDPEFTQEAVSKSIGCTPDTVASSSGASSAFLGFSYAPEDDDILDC
Protocol: as §1

KIT(V559D) = biological target: T17, KIT(V559D) (Homo sapiens, UniProt P10721, V559D)
T17 construct: purchased Eurofins Discovery (DiscoverX KINOMEscan scanMAX)
Protocol: as §1

KIT(D816V) = biological target: T18, KIT(D816V) (Homo sapiens, UniProt P10721, D816V)
T18 construct: purchased Eurofins Discovery (DiscoverX KINOMEscan scanMAX)
Protocol: as §1

PIP5K1A = biological target: T19, PIP5K1A (Homo sapiens, UniProt Q99755)
T19 construct: purchased Eurofins Discovery (DiscoverX KINOMEscan scanMAX)
Protocol: as §1

MKNK1 = biological target: T20, MKNK1 (Homo sapiens, UniProt Q9BUB5)
T20 construct: purchased Eurofins Discovery (DiscoverX KINOMEscan scanMAX)
T20 sequence (Q9BUB5 whole entry): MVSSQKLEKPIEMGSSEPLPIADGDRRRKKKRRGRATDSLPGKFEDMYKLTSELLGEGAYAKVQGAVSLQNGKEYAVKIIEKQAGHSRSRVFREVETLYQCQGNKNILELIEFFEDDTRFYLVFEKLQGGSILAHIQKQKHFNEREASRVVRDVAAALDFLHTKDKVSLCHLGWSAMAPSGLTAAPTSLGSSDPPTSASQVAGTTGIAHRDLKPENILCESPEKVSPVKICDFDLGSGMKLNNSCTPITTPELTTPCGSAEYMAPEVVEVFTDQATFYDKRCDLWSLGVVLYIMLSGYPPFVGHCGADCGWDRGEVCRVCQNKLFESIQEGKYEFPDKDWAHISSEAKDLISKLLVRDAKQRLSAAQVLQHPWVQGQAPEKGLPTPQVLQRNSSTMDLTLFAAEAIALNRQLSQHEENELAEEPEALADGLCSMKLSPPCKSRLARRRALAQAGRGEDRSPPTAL
Protocol: as §1

MINK = biological target: T21, MINK (Homo sapiens, UniProt Q8N4C8)
T21 construct: purchased Eurofins Discovery (DiscoverX KINOMEscan scanMAX)
Protocol: as §1

JNK1 = biological target: T22, JNK1 (Homo sapiens, UniProt P45983)
T22 construct: purchased Eurofins Discovery (DiscoverX KINOMEscan scanMAX)
Protocol: as §1

JNK2 = biological target: T23, JNK2 (Homo sapiens, UniProt P45984)
T23 construct: purchased Eurofins Discovery (DiscoverX KINOMEscan scanMAX)
T23 sequence (P45984 whole entry): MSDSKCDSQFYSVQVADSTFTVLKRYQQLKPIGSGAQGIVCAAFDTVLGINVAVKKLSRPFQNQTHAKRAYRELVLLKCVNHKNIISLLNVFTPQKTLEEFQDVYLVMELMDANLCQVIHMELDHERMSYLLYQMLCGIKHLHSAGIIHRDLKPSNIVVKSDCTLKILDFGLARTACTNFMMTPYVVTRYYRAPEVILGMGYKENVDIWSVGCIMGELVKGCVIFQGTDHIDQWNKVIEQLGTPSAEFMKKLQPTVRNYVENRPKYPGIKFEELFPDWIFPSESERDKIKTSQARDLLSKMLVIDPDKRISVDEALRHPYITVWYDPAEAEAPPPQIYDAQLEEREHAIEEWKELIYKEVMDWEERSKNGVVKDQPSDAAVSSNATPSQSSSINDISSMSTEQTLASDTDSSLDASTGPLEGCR
Protocol: as §1

YES = biological target: T24, YES (Homo sapiens, UniProt P07947)
T24 construct: purchased Eurofins Discovery (DiscoverX KINOMEscan scanMAX)
Protocol: as §1

LIMK2 = biological target: T25, LIMK2 (Homo sapiens, UniProt P53671)
T25 construct: purchased Eurofins Discovery (DiscoverX KINOMEscan scanMAX)
Protocol: as §1

PRKG1 = biological target: T26, PRKG1 (Homo sapiens, UniProt Q13976)
T26 construct: purchased Eurofins Discovery (DiscoverX KINOMEscan scanMAX)
Protocol: as §1

PIP5K2B = biological target: T27, PIP5K2B (Homo sapiens, UniProt P78356)
T27 construct: purchased Eurofins Discovery (DiscoverX KINOMEscan scanMAX)
Protocol: as §1

MEK2 = biological target: T28, MEK2 (Homo sapiens, UniProt P36507)
T28 construct: purchased Eurofins Discovery (DiscoverX KINOMEscan scanMAX)
Protocol: as §1

[1] = biological target: T29, ABL1(T315I)-phosphorylated (Homo sapiens, UniProt P00519, T315I)
T29 construct: purchased Eurofins Discovery (DiscoverX KINOMEscan scanMAX)
Protocol: as §1

PAK7 = biological target: T30, PAK7 (Homo sapiens, UniProt Q9P286)
T30 construct: purchased Eurofins Discovery (DiscoverX KINOMEscan scanMAX)
T30 sequence (Q9P286 whole entry): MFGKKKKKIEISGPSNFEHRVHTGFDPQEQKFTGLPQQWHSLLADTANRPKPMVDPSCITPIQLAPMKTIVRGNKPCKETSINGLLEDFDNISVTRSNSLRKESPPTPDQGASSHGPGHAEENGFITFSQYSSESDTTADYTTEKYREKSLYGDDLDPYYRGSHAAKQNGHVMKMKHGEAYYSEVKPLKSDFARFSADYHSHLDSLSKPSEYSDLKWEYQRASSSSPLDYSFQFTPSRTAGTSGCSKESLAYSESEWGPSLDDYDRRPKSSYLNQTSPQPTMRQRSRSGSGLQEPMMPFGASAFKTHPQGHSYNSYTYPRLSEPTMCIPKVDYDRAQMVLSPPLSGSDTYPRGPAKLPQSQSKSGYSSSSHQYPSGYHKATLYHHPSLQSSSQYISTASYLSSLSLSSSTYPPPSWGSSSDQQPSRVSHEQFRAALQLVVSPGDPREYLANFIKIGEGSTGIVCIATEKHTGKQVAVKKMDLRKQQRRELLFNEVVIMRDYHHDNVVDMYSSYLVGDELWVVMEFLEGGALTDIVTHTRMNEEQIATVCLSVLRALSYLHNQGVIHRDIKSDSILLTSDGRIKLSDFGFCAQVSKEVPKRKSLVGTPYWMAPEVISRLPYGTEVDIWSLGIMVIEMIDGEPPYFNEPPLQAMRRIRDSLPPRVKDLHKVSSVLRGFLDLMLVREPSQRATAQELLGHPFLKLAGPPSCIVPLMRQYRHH
Protocol: as §1

CSNK2A1 = biological target: T31, CSNK2A1 (Homo sapiens, UniProt P68400)
T31 construct: purchased Eurofins Discovery (DiscoverX KINOMEscan scanMAX)
Protocol: as §1

[2] = biological target: T32, TYK2(JH1domain-catalytic) (Homo sapiens, UniProt P29597)
T32 construct: TYK2(JH1domain-catalytic); purchased Eurofins Discovery (DiscoverX KINOMEscan scanMAX)
Protocol: as §1

CSF1R-autoinhibited = biological target: T33, CSF1R-autoinhibited (Homo sapiens, UniProt P07333)
T33 construct: purchased Eurofins Discovery (DiscoverX KINOMEscan scanMAX)
Protocol: as §1

T1 sequence (Q15759 whole entry): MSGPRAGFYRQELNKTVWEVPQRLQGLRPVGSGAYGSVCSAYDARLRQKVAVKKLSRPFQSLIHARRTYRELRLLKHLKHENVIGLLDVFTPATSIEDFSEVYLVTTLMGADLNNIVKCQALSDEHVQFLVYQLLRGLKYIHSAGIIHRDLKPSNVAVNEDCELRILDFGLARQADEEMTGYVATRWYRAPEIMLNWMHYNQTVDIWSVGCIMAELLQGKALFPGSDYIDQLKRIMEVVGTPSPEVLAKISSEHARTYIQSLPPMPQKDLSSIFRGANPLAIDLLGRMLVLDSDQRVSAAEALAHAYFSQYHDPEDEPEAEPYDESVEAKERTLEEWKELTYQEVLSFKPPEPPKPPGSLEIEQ

Cc1cc(Nc2ccc(F)c(CC3(C(=O)N4CCC(F)(CN5CCN(c6ccc(N7CCC(=O)NC7=O)cn6)CC5)CC4)CCN(Cc4cccc(Cl)c4F)CC3)n2)n[nH]1 [SK5527]
remaining binding at 0.1 µM (p38-beta; 100 nM): 100% | remaining binding at 1 µM (p38-beta; 1000 nM): 99% | remaining binding at 0.1 µM (YANK2; 100 nM): 100% | remaining binding at 1 µM (YANK2; 1000 nM): 100% | remaining binding at 0.1 µM (MARK3; 100 nM): 100% | remaining binding at 1 µM (MARK3; 1000 nM): 87% | remaining binding at 0.1 µM (S6K1; 100 nM): 100% | remaining binding at 1 µM (S6K1; 1000 nM): 100% | remaining binding at 0.1 µM (YANK3; 100 nM): 86% | remaining binding at 1 µM (YANK3; 1000 nM): 80% | remaining binding at 0.1 µM (PIK3CA(H1047Y); 100 nM): 95% | remaining binding at 1 µM (PIK3CA(H1047Y); 1000 nM): 100% | remaining binding at 0.1 µM (ERK4; 100 nM): 97% | remaining binding at 1 µM (ERK4; 1000 nM): 98% | remaining binding at 0.1 µM (p38-gamma; 100 nM): 97% | remaining binding at 1 µM (p38-gamma; 1000 nM): 87% | remaining binding at 0.1 µM (PIK3CA(I800L); 100 nM): 85% | remaining binding at 1 µM (PIK3CA(I800L); 1000 nM): 74% | remaining binding at 0.1 µM (DYRK1B; 100 nM): 98% | remaining binding at 1 µM (DYRK1B; 1000 nM): 74% | remaining binding at 0.1 µM (IKK-epsilon; 100 nM): 75% | remaining binding at 1 µM (IKK-epsilon; 1000 nM): 67% | remaining binding at 0.1 µM (PIK3CA(M1043I); 100 nM): 100% | remaining binding at 1 µM (PIK3CA(M1043I); 1000 nM): 100% | remaining binding at 0.1 µM (STK33; 100 nM): 100% | remaining binding at 1 µM (STK33; 1000 nM): 97% | remaining binding at 0.1 µM (HASPIN; 100 nM): 79% | remaining binding at 1 µM (HASPIN; 1000 nM): 70% | remaining binding at 0.1 µM (LRRK2(G2019S); 100 nM): 73% | remaining binding at 1 µM (LRRK2(G2019S); 1000 nM): 67% | remaining binding at 0.1 µM (SGK2; 100 nM): 93% | remaining binding at 1 µM (SGK2; 1000 nM): 83% | remaining binding at 0.1 µM (KIT(V559D); 100 nM): 100% | remaining binding at 1 µM (KIT(V559D); 1000 nM): 100% | remaining binding at 0.1 µM (KIT(D816V); 100 nM): 93% | remaining binding at 1 µM (KIT(D816V); 1000 nM): 97% | remaining binding at 0.1 µM (PIP5K1A; 100 nM): 70% | remaining binding at 1 µM (PIP5K1A; 1000 nM): 76% | remaining binding at 0.1 µM (MKNK1; 100 nM): 84% | remaining binding at 1 µM (MKNK1; 1000 nM): 92% | remaining binding at 0.1 µM (MINK; 100 nM): 98% | remaining binding at 1 µM (MINK; 1000 nM): 86% | remaining binding at 0.1 µM (JNK1; 100 nM): 72% | remaining binding at 1 µM (JNK1; 1000 nM): 95% | remaining binding at 0.1 µM (JNK2; 100 nM): 67% | remaining binding at 1 µM (JNK2; 1000 nM): 74% | remaining binding at 0.1 µM (YES; 100 nM): 73% | remaining binding at 1 µM (YES; 1000 nM): 70% | remaining binding at 0.1 µM (LIMK2; 100 nM): 100% | remaining binding at 1 µM (LIMK2; 1000 nM): 98% | remaining binding at 0.1 µM (PRKG1; 100 nM): 92% | remaining binding at 1 µM (PRKG1; 1000 nM): 100% | remaining binding at 0.1 µM (PIP5K2B; 100 nM): 100% | remaining binding at 1 µM (PIP5K2B; 1000 nM): 100% | remaining binding at 0.1 µM (MEK2; 100 nM): 80% | remaining binding at 1 µM (MEK2; 1000 nM): 81% | remaining binding at 0.1 µM ([1]; 100 nM): 62% | remaining binding at 1 µM ([1]; 1000 nM): 17% | remaining binding at 0.1 µM (PAK7; 100 nM): 98% | remaining binding at 1 µM (PAK7; 1000 nM): 74% | remaining binding at 0.1 µM (CSNK2A1; 100 nM): 90% | remaining binding at 1 µM (CSNK2A1; 1000 nM): 69% | remaining binding at 0.1 µM ([2]; 100 nM): 79% | remaining binding at 1 µM ([2]; 1000 nM): 81% | remaining binding at 0.1 µM (CSF1R-autoinhibited; 100 nM): 100% | remaining binding at 1 µM (CSF1R-autoinhibited; 1000 nM): 100%
